Columns and labels:
Assay type in all cases: in vivo
[1] = tested on: Amaranthus retroflexus (AMARE); experiment: Herbicidal pre-emergence action (A), 1280 g/ha; settings: visual grading after ca. 3 weeks vs untreated controls
Outline: (§1)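 Greenhouse pre-emergence test: formulated compound (WP/EC plus 0.5% additive, 600 l/ha water) applied to the soil over sown seeds in sandy loam. Percent herbicidal effect was rated by eye after ca. 3 weeks relative to untreated pots.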

Poa annua (POAAN) [2] = experiment: Herbicidal pre-emergence action (A), 1280 g/ha; settings: visual grading after ca. 3 weeks vs untreated controls, 100% = plants have died off, 0% = as control plants
Outline: as §1

[3] = tested on: Abutilon theophrasti (ABUTH); experiment: Herbicidal pre-emergence action (A), 1280 g/ha; settings: visual grading after ca. 3 weeks vs untreated controls, 100% = plants have died off, 0% = as control plants
Outline: as §1

[4] = tested on: Digitaria sanguinalis (DIGSA); experiment: Herbicidal pre-emergence action (A), 1280 g/ha; settings: visual grading after ca. 3 weeks vs untreated controls, 100% = plants have died off, 0% = as control plants
Outline: as §1

Stellaria media (STEME) [5] = experiment: Herbicidal pre-emergence action (A), 1280 g/ha; settings: visual grading after ca. 3 weeks vs untreated controls
Outline: as §1

Lolium rigidum (LOLRI) [6] = experiment: Herbicidal pre-emergence action (A), 1280 g/ha; settings: visual grading after ca. 3 weeks vs untreated controls, 100% = plants have died off, 0% = as control plants
Outline: as §1

Setaria viridis (SETVI) [7] = experiment: Herbicidal pre-emergence action (A), 1280 g/ha; settings: visual grading after ca. 3 weeks vs untreated controls
Outline: as §1

[8] = tested on: Echinochloa crus-galli (ECHCG); experiment: Herbicidal pre-emergence action (A), 1280 g/ha; settings: visual grading after ca. 3 weeks vs untreated controls, 100% = plants have died off, 0% = as control plants
Outline: as §1

[9] = tested on: Kochia scoparia (KCHSC; Bassia scoparia); experiment: Herbicidal pre-emergence action (A), 1280 g/ha; settings: visual grading after ca. 3 weeks vs untreated controls
Outline: as §1

[10] = tested on: Matricaria inodora (MATIN); experiment: Herbicidal pre-emergence action (A), 1280 g/ha; settings: visual grading after ca. 3 weeks vs untreated controls
Outline: as §1

[11] = tested on: Echinochloa crus-galli (ECHCG); experiment: Herbicidal pre-emergence action (C), 320 g/ha; settings: ca. 3 weeks
Outline: (§2)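 Pre-emergence greenhouse test: visual damage rating at about 3 weeks relative to untreated plants, 100% meaning death and 0% no effect. Compounds, as wettable powders or emulsifiable concentrates with 0.5% additive, were applied at 320 g/ha (600 l water/ha) onto soil covering seeds sown in sandy loam.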

[12] = tested on: Amaranthus retroflexus (AMARE); experiment: Herbicidal post-emergence action (B), 1280 g/ha; settings: rated visually after about 3 weeks vs untreated controls
Outline: (§3)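 Foliar post-emergence treatment of one-leaf-stage weeds with WP or EC preparations in water plus 0.5% additive, sprayed at 600 L/ha. Visual efficacy was assessed after roughly 3 weeks relative to untreated controls, 100% being complete kill.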

Poa annua (POAAN) [13] = experiment: Herbicidal post-emergence action (B), 1280 g/ha; settings: rated visually after about 3 weeks vs untreated controls
Outline: as §3

[14] = tested on: Abutilon theophrasti (ABUTH); experiment: Herbicidal post-emergence action (B), 1280 g/ha; settings: rated visually after about 3 weeks vs untreated controls
Outline: as §3

Stellaria media (STEME) [15] = experiment: Herbicidal post-emergence action (B), 1280 g/ha
Outline: as §3

Lolium rigidum (LOLRI) [16] = experiment: Herbicidal post-emergence action (B), 1280 g/ha; settings: one-leaf stage, rated after about 3 weeks vs untreated controls, 100% activity = the plants have died, 0% = like control plants
Outline: as §3

Setaria viridis (SETVI) [17] = experiment: Herbicidal post-emergence action (B), 1280 g/ha; settings: rated visually after about 3 weeks vs untreated controls
Outline: as §3

[18] = tested on: Echinochloa crus-galli (ECHCG); experiment: Herbicidal post-emergence action (B), 1280 g/ha; settings: rated visually after about 3 weeks vs untreated controls
Outline: as §3

Veronica persica (VERPE) [19] = experiment: Herbicidal pre-emergence action (A), 1280 g/ha; settings: visual grading after ca. 3 weeks vs untreated controls
Outline: as §1

[20] = tested on: Alopecurus myosuroides (ALOMY); experiment: Herbicidal pre-emergence action (A), 1280 g/ha; settings: visual grading after ca. 3 weeks vs untreated controls, 100% = plants have died off, 0% = as control plants
Outline: as §1

[21] = tested on: Amaranthus retroflexus (AMARE); experiment: Herbicidal pre-emergence action (C), 320 g/ha; settings: ca. 3 weeks
Outline: as §2

Lolium rigidum (LOLRI) [22] = experiment: Herbicidal pre-emergence action (C), 320 g/ha; settings: ca. 3 weeks
Outline: as §2

Setaria viridis (SETVI) [23] = experiment: Herbicidal pre-emergence action (C), 320 g/ha; settings: ca. 3 weeks
Outline: as §2

Veronica persica (VERPE) [24] = experiment: Herbicidal post-emergence action (B), 1280 g/ha
Outline: as §3

[25] = tested on: Digitaria sanguinalis (DIGSA); experiment: Herbicidal post-emergence action (B), 1280 g/ha; settings: rated visually after about 3 weeks vs untreated controls
Outline: as §3

[26] = tested on: Alopecurus myosuroides (ALOMY); experiment: Herbicidal post-emergence action (B), 1280 g/ha; settings: rated visually after about 3 weeks vs untreated controls
Outline: as §3

[27] = tested on: Kochia scoparia (KCHSC; Bassia scoparia); experiment: Herbicidal post-emergence action (B), 1280 g/ha
Outline: as §3

[28] = tested on: Matricaria inodora (MATIN); experiment: Herbicidal post-emergence action (B), 1280 g/ha; settings: rated visually after about 3 weeks vs untreated controls
Outline: as §3

Compound | herbicidal effect AMARE [1] [%] | POAAN, herbicidal effect in percent (%) (Poa annua (POAAN) [2]) | DIGSA, herbicidal effect in percent (%) [4] [%] | herbicidal effect STEME (Stellaria media (STEME) [5]) [%] | LOLRI, herbicidal effect in percent (%) (Lolium rigidum (LOLRI) [6]) | herbicidal effect SETVI (Setaria viridis (SETVI) [7]) [%] | ECHCG, herbicidal effect in percent (%) [8] [%] | herbicidal effect KCHSC [9] [%] | herbicidal effect MATIN [10] [%] | herbicidal effect ECHCG [11] [%] | herbicidal activity AMARE [12] [%] | herbicidal activity POAAN (Poa annua (POAAN) [13]) [%] | herbicidal activity ABUTH [14] [%] | herbicidal effect STEME (Stellaria media (STEME) [15]) [%] | LOLRI, activity rated visually (%) (Lolium rigidum (LOLRI) [16]) | herbicidal activity SETVI (Setaria viridis (SETVI) [17]) [%] | herbicidal activity ECHCG [18] [%] | other results
Cc1ccccc1-c1ccc2scnc2n1 [Example I-105] | 90 | 100 | 100 | 100 | 100 | 100 | 100 | 100 | 100 | 90 | 100 | 100 | 90 | 100 | 100 | 90 | 100 | ABUTH, herbicidal effect in percent (%) [3]: 90%
Cc1ccsc1-c1nc2ncsc2cc1Br [Example I-132] | 100 | 100 | 100 | 90 | 100 | 100 | 100 | 100 | 90 | 100 | 90 | 90 | 90 | 100 | 100 | 90 | 100 | herbicidal effect VERPE (Veronica persica (VERPE) [19]): 100%; ALOMY, herbicidal effect in percent (%) [20]: 100%; herbicidal effect AMARE [21]: 90%; herbicidal effect LOLRI (Lolium rigidum (LOLRI) [22]): 100%; herbicidal effect SETVI (Setaria viridis (SETVI) [23]): 100%; herbicidal effect VERPE (Veronica persica (VERPE) [24]): 100%; herbicidal activity DIGSA [25]: 90%; herbicidal activity ALOMY [26]: 100%; herbicidal effect KCHSC [27]: 90%; herbicidal activity MATIN [28]: 90%

Reference: patent US20230151025A1, “SUBSTITUTED THIAZOLOPYRIDINES, SALTS THEREOF AND THEIR USE AS HERBICIDALLY ACTIVE SUBSTANCES” (Bayer Aktiengesellschaft, priority 2020, published 2023)
